Experimental data taken from patent publication US20200397795A1, “PROPHYLACTIC TREATMENT OF VENOUS THROMBOEMBOLISM” (JANSSEN PHARMACEUTICALS, INC., priority 2019, published 2020).

Test system: venous thromboembolism (VTE) in patients hospitalized for acute medical illness
Assay: MAGELLAN (Study 1): efficacy of oral rivaroxaban 10 mg OD 35 days vs sc enoxaparin 40 mg OD 10 days then placebo
Format: in vivo
Procedure: The objective of Study 1 (MAGELLAN or MAGELLAN Study) was to compare efficacy and safety of venous thromboembolism (VTE) prophylaxis with oral rivaroxaban 10 mg once daily administered for 35±4 days (hereafter referred to as 35 days or Day 35) to subcutaneous enoxaparin 40 mg once daily (OD) administered for 10±4 days (hereafter referred to as 10 days or Day 10) in men and women aged 40 years or above, who have been hospitalized for a medical illness.
Diagnosis and main criteria for inclusion in Study 1 was men and women 40 years or above and at risk for VTE being hospitalized for acute medical illness conditions, including: heart failure (New York Heart Association [NYHA] class III or IV); active cancer (e.g., admitted for chemotherapy or for the treatment of a complication of active cancer); acute ischemic stroke; acute infectious and inflammatory diseases, including acute rheumatic diseases; and acute respiratory insufficiency. Also at least one additional risk factor for VTE, including: severe varicosis (varicosities); chronic venous insufficiency; history of cancer; history of deep vein thrombosis (DVT) or pulmonary embolism (PE); history of heart failure (NYHA class III or IV); thrombophilia (hereditary or acquired); recent major surgery (6-12 weeks); recent serious trauma (6-12 weeks); hormone replacement therapy; advanced age greater than or equal to 75 years; morbid obesity (body mass index (BMI) 35 kg/m^2 or higher); and acute infectious disease contributing to hospitalization.
The study was conducted in a prospective, randomized, double-blind, double dummy, active comparator-controlled, multicenter and multinational design. There were 8101 subjects were randomized at 556 study centers in 52 countries to one of the two treatment groups. Of the 8101 randomized subjects, 4050 were randomized to active rivaroxaban and 4051 were randomized to active enoxaparin.
Primary Endpoints: The primary efficacy variable was a composite of the number of events of: asymptomatic proximal DVT in lower extremity detected by mandatory bilateral lower extremity venous ultrasonography; symptomatic DVT in lower extremity, proximal or distal; symptomatic, non-fatal PE; and VTE-related death defined as either a well-documented fatal PE, or sudden death with no other plausible explanation. The two primary efficacy endpoints were (i) test of superiority at Day 35 (Days 29-41, inclusive) and (ii) test of non-inferiority at Day 10 (Days 6-15, inclusive).
Secondary Endpoints: The first major secondary efficacy endpoint was defined as a composite of the test of superiority at Day 35 with component of VTE-related death substituted by all-cause mortality, up to Day 35. The second major efficacy secondary efficacy endpoint was the test for superiority at Day 10 using the same composite endpoint as the Day 10 non-inferiority test.
For both primary efficacy endpoints, the relative risk ratio (rivaroxaban/enoxaparin) with respect to the incidences of the primary efficacy endpoint was estimated based on a stratified estimator using Mantel-Haenszel weights (based on sample sizes by geographic region). The corresponding asymptotic 2-sided 95% confidence interval based on the approximation to the normal distribution was determined. Sensitivity analyses were performed for the primary efficacy endpoints.
The primary efficacy variable was a composite of the number of events of (1) asymptomatic proximal DVT in lower extremity detected by mandatory bilateral lower extremity venous ultrasonography; (2) symptomatic DVT in lower extremity, proximal or distal; (3) symptomatic, nonfatal PE; and (4) VTE-related death. […]

[1] = Day 10 + 5, PP Day 10 plus major and clinically relevant bleeds
[2] = Day 10 + 5, per protocol Day 10 analysis set
[3] = Day 10 + 5 up to Day 35 + 6, mITT (Day 10 to Day 35) analysis set
[4] = Day 10 + 5 up to Day 35 + 6, mITT (Day 10 to Day 35) analysis set, listed as enoxaparin
[5] = Day 35 + 6, mITT Day 35 analysis set
[6] = Day 35 + 6, mITT Day 35 analysis set, listed as enoxaparin
[7] = Day 35 + 6, mITT Day 35 plus major and clinically relevant bleeds

Enoxaparin
Major vascular events (CV death, acute myocardial infarction, or acute ischemic stroke), incidence (Day 10): 1.0%
Symptomatic VTE excluding VTE-related death, incidence (Day 10): 0.3%
Symptomatic VTE including death, incidence (Day 10): 0.6%
Net clinical benefit component: asymptomatic lower proximal deep vein thrombosis [1]: 71 (2.4%)
Net clinical benefit component: clinically relevant non-major bleeding [1]: 32 (1.1%)
Net clinical benefit component: death (pulmonary embolism) [1]: 6 (0.2%)
Net clinical benefit component: major bleeding [1]: 4 (0.1%)
Net clinical benefit component: symptomatic deep vein thrombosis in lower extremity [1]: 6 (0.2%)
Net clinical benefit component: symptomatic non-fatal pulmonary embolism [1]: 2 (<0.1%)
Net clinical benefit component: venous thromboembolism related death [1]: 6 (0.2%)
Net clinical benefit, any event, incidence [1]: 118 (3.9%)
Net clinical benefit, any event, incidence (Day 10 + 5, PP Day 10 plus major and clinically relevant bleeds, listed as enoxaparin): 3.9%
Asymptomatic proximal deep vein thrombosis in lower extremity, incidence [2]: 71 (2.4%)
Death (pulmonary embolism cannot be excluded), incidence [2]: 6 (0.2%)
Primary efficacy composite, any event, incidence [2]: 82 (2.7%)
Symptomatic deep vein thrombosis in lower extremity, incidence [2]: 6 (0.2%)
Symptomatic non-fatal pulmonary embolism, incidence [2]: 2 (<0.1%)
Venous thromboembolism related death, incidence [2]: 6 (0.2%)
Primary efficacy composite, any event, incidence (Day 10 + 5, per protocol Day 10 analysis set, listed as enoxaparin): 2.7%
Asymptomatic proximal deep vein thrombosis in lower extremity, incidence [3]: 89 (2.9%)
Death (pulmonary embolism cannot be excluded), incidence [3]: 15 (0.5%)
Death (pulmonary embolism), incidence [3]: 0%
Symptomatic deep vein thrombosis in lower extremity, incidence [3]: 7 (0.2%)
Symptomatic non-fatal pulmonary embolism, incidence [3]: 10 (0.3%)
Venous thromboembolism related death, incidence [3]: 15 (0.5%)
Primary efficacy composite, any event, incidence (Day 10 + 5 up to Day 35 + 6, mITT (Day 10 to Day 35) analysis set, rivaroxaban-placebo phase): 114 (3.8%)
Primary efficacy composite, any event, incidence (Day 10 + 5 up to Day 35 + 6, mITT (Day 10 to Day 35) analysis set, rivaroxaban-placebo phase, listed as enoxaparin): 3.8%
Asymptomatic proximal deep vein thrombosis in lower extremity, incidence [4]: 2.9%
Venous thromboembolism related death, incidence [4]: 0.5%
Major vascular events, incidence (Day 35): 1.6%
Symptomatic VTE excluding VTE-related death, incidence (Day 35): 0.7%
Symptomatic VTE including death, incidence (Day 35): 1.4%
Asymptomatic proximal deep vein thrombosis in lower extremity, incidence [5]: 133 (4.4%)
Death (pulmonary embolism cannot be excluded), incidence [5]: 29 (0.9%)
Death (pulmonary embolism), incidence [5]: 1 (<0.1%)
Primary efficacy composite, any event, incidence [5]: 175 (5.7%)
Symptomatic deep vein thrombosis in lower extremity, incidence [5]: 15 (0.5%)
Symptomatic non-fatal pulmonary embolism, incidence [5]: 14 (0.5%)
Venous thromboembolism related death, incidence [5]: 30 (1.0%)
Asymptomatic proximal deep vein thrombosis in lower extremity, incidence [6]: 4.4%
Primary efficacy composite, any event, incidence [6]: 5.7%
Venous thromboembolism related death, incidence [6]: 1.0%
Net clinical benefit component: asymptomatic lower proximal deep vein thrombosis [7]: 133 (4.3%)
Net clinical benefit component: clinically relevant non-major bleeding [7]: 52 (1.7%)
Net clinical benefit component: death (pulmonary embolism cannot be excluded) [7]: 29 (0.9%)
Net clinical benefit component: death (pulmonary embolism) [7]: 1 (<0.1%)
Net clinical benefit component: major bleeding [7]: 15 (0.5%)
Net clinical benefit component: symptomatic deep vein thrombosis in lower extremity [7]: 15 (0.5%)
Net clinical benefit component: symptomatic non-fatal pulmonary embolism [7]: 14 (0.5%)
Net clinical benefit component: venous thromboembolism related death [7]: 30 (1.0%)
Net clinical benefit, any event, incidence [7]: 240 (7.8%)
Net clinical benefit, any event, incidence (Day 35 + 6, mITT Day 35 plus major and clinically relevant bleeds, listed as enoxaparin): 7.8%
Composite endpoint including all-cause mortality, incidence (Day 35, mITT Day 35 expanded): 9.2%
All-cause mortality, incidence (Day 90): 6.2%
Major vascular events, incidence (Day 90): 2.8%
Symptomatic VTE excluding VTE-related death, incidence (Day 90): 0.9%
Symptomatic VTE including death, incidence (Day 90): 1.9%
